Results taken from article PMC6150413 (Molecules : A Journal of Synthetic Chemistry and Natural …, 2017).
Peptide text beside a SMILES is read from it.

Columns and labels:
[1] = test system: E. coli ATCC 25922; conditions: ATCC 25922, 2 h
Method: (§1) The antimicrobial activities of VIP and its analogues were tested against S. aureus ATCC 25923 and E. coli ATCC 25922 according to the method reported by Wani et al. with slight modification. The final peptide concentrations ranged from 0.5 to 256 μM. The tests were performed in triplicate using 4 replicates for each experiment. In addition, S. aureus ATCC 25923 and E. coli ATCC 25922 (2 × 10^6 CFU/mL) were treated with natural VIP and VIP8 at MIC for 2 h. […] The haemolytic activity of VIP and VIP derivatives were measured using porcine erythrocytes according to previous method. MTT (3-[4,5 dimethylthiozol-2-yl]-2,5-diphenyltetrazolium bromide) was used to determine the cytotoxicity of VIP and its analogue on porcine intestinal epithelial cells IPEC-J2. Stable experiments were conducted with reference to the literature with slightly changes. First, the pH of the mediums was adjusted to acidic (pH 4.0, pH 5.0, and pH 6.0) and basic (pH 8.0, pH 9.0, and pH 10.0) conditions. To investigate the effects of ion strength, the bacterial mediums were supplemented with different concentrations of NaCl (20 mM, 60 mM, and 180 mM) or MgCl2 (1 mM, 25 mM, and 50 mM). Then, bacteria were incubated with VIP, VIP analogues 2 and 8, respectively. After 3 h of incubation, bacterial viability was measured with a Synergy HT multimode reader (BioTek, Winooski, VT, USA) at 600 nm.
(§2) Both the agar diffusion test and modified broth microdilution method were used to evaluate the antimicrobial activity of recombinant expressed VIP8. For the Oxford cup agar diffusion, the sample was added to an Oxford cup, which was then placed on a Mueller-Hinton agar plate containing 1 × 10^5 colony-forming units of S. aureus […]. Chemically-synthesized VIP8 and ampicillin were used as the positive control. The minimal inhibition concentration was determined by the method reported by Wani et al..

[2] = test system: S. aureus ATCC 25923; conditions: ATCC 25923, 2 h
Method: as §1, §2

MIC (minimum inhibitory concentration) [1] [µM]	MIC (minimum inhibitory concentration) [2] [µM]	Compound	MBC (minimum bactericidal concentration) [1] [µM]	MBC (minimum bactericidal concentration) [2] [µM]
>256	>256	CC[C@H](C)[C@H](NC(=O)[C@H](CO)NC(=O)[C@H](CC(N)=O)NC(=O)[C@H](CC(C)C)NC(=O)[C@H](Cc1ccc(O)cc1)NC(=O)[C@H](CCCCN)NC(=O)[C@H](CCCCN)NC(=O)[C@@H](NC(=O)[C@H](C)NC(=O)[C@H](CCSC)NC(=O)[C@H](CCC(N)=O)NC(=O)[C@H](CCCCN)NC(=O)[C@H](CCCNC(=N)N)NC(=O)[C@H](CC(C)C)NC(=O)[C@H](CCCNC(=N)N)NC(=O)[C@@H](NC(=O)[C@H](Cc1ccc(O)cc1)NC(=O)[C@H](CC(N)=O)NC(=O)[C@H](CCCCN)NC(=O)[C@@H](NC(=O)[C@H](Cc1ccccc1)NC(=O)[C@@H](NC(=O)[C@H](C)NC(=O)[C@H](CCCCN)NC(=O)[C@H](CO)NC(=O)[C@@H](N)Cc1c[nH]cn1)C(C)C)[C@@H](C)O)[C@@H](C)O)C(C)C)C(=O)N[C@@H](CC(C)C)C(=O)N[C@H](C(=O)O)[C@@H](C)O [VIP5] (H-HSKAVFTKNYTRLRKQMAVKKYLNSILT-OH)	>256	>256
8	16	CC[C@H](C)[C@H](NC(=O)[C@H](C)NC(=O)[C@H](C)NC(=O)[C@H](CC(C)C)NC(=O)[C@H](Cc1ccc(O)cc1)NC(=O)[C@H](CCCNC(=N)N)NC(=O)[C@H](CCCNC(=N)N)NC(=O)[C@@H](NC(=O)[C@H](C)NC(=O)[C@H](CC(C)C)NC(=O)[C@H](CCC(N)=O)NC(=O)[C@H](CCCNC(=N)N)NC(=O)[C@H](CCCNC(=N)N)NC(=O)[C@H](CC(C)C)NC(=O)[C@H](CCCNC(=N)N)NC(=O)[C@@H](NC(=O)[C@H](Cc1ccc(O)cc1)NC(=O)[C@H](CC(N)=O)NC(=O)[C@H](C)NC(=O)[C@@H](NC(=O)[C@H](Cc1ccccc1)NC(=O)[C@@H](NC(=O)[C@H](C)NC(=O)[C@H](CC(=O)O)NC(=O)[C@H](CO)NC(=O)[C@@H](N)Cc1c[nH]cn1)C(C)C)[C@@H](C)O)[C@@H](C)O)C(C)C)C(=O)N[C@@H](CC(C)C)C(=O)NCC(=O)N[C@@H](CCCNC(=N)N)C(=O)N[C@@H](CCCNC(=N)N)C(=O)O [VIP7] (H-HSDAVFTANYTRLRRQLAVRRYLAAILGRR-OH)	8	32
>256	>256	CC[C@H](C)[C@H](NC(=O)[C@H](CO)NC(=O)[C@H](CC(N)=O)NC(=O)[C@H](CC(C)C)NC(=O)[C@H](Cc1ccc(O)cc1)NC(=O)[C@H](CCCCN)NC(=O)[C@H](CCCCN)NC(=O)[C@@H](NC(=O)[C@H](C)NC(=O)[C@H](CCSC)NC(=O)[C@H](CCC(N)=O)NC(=O)[C@H](CCCCN)NC(=O)[C@H](CCCNC(=N)N)NC(=O)[C@H](CC(C)C)NC(=O)[C@H](CCCNC(=N)N)NC(=O)[C@@H](NC(=O)[C@H](Cc1ccc(O)cc1)NC(=O)[C@H](CC(N)=O)NC(=O)[C@H](CC(=O)O)NC(=O)[C@@H](NC(=O)[C@H](Cc1ccccc1)NC(=O)[C@@H](NC(=O)[C@H](C)NC(=O)[C@H](CC(=O)O)NC(=O)[C@H](CO)NC(=O)[C@@H](N)Cc1c[nH]cn1)C(C)C)[C@@H](C)O)[C@@H](C)O)C(C)C)C(=O)N[C@@H](CC(C)C)C(=O)N[C@H](C(=O)O)[C@@H](C)O [VIP4] (H-HSDAVFTDNYTRLRKQMAVKKYLNSILT-OH)	>256	>256
